Species: Cavia porcellus
Assay: Induction of delayed type hypersensitivity in ABA-BSA immunized Hartley Guinea pigs assessed as reduction in skin lesions at 100 ug measured for 24 hrs
Type: functional
Conditions: dose 100 µg

Row | Compound | Activity [mm]
1 | CC(=O)NC[C@H]1O[C@@H](O)[C@H](NC(C)=O)[C@@H](O[C@H](C)C(=O)N[C@@H](C)C(=O)N[C@H](CCC(=O)O)C(N)=O)[C@@H]1O | 21.4
2 | CCCCCCCCCCCCCCCCCC(=O)N[C@@H]1[C@@H](O[C@H](C)C(=O)N[C@H](C(=O)N[C@H](CCC(=O)O)C(N)=O)C(C)C)[C@H](O)[C@@H](CN)O[C@H]1O | 10.5
3 | CCCCCCCCCCCCCCCCCC(=O)NC[C@H]1O[C@@H](O)[C@H](N)[C@@H](O[C@H](C)C(=O)N[C@H](C(=O)N[C@H](CCC(=O)O)C(N)=O)C(C)C)[C@@H]1O | 4.3
4 | CCCCCCCCCCCCCCCCCCCC(=O)NC[C@H]1O[C@@H](O)[C@H](N)[C@@H](O[C@H](C)C(=O)N[C@@H](C)C(=O)N[C@H](CCC(=O)O)C(N)=O)[C@@H]1O.Cl | 8

Species: Cavia porcellus
Assay: Induction of delayed type hypersensitivity in ABA-BSA immunized Hartley Guinea pigs assessed as reduction in skin lesions at 100 ug measured for 48 hrs
Type: functional
Conditions: dose 100 µg

Row | Compound | Activity [mm]
5 | CC(=O)NC[C@H]1O[C@@H](O)[C@H](NC(C)=O)[C@@H](O[C@H](C)C(=O)N[C@@H](C)C(=O)N[C@H](CCC(=O)O)C(N)=O)[C@@H]1O | 16.7

What follows are compounds tested against T1, Nuclear factor NF-kappa-B complex (Homo sapiens) (UniProt Q00653+P19838+Q04206) (assay: Activation of NF-KappaB (unknown origin) expressed in HEK293T cells assessed as fold change at 10 ng incubated for 12 hrs by Renilla luciferase assay). Conditions: filed as activator.
T1 sequence (P19838 whole entry, looked up): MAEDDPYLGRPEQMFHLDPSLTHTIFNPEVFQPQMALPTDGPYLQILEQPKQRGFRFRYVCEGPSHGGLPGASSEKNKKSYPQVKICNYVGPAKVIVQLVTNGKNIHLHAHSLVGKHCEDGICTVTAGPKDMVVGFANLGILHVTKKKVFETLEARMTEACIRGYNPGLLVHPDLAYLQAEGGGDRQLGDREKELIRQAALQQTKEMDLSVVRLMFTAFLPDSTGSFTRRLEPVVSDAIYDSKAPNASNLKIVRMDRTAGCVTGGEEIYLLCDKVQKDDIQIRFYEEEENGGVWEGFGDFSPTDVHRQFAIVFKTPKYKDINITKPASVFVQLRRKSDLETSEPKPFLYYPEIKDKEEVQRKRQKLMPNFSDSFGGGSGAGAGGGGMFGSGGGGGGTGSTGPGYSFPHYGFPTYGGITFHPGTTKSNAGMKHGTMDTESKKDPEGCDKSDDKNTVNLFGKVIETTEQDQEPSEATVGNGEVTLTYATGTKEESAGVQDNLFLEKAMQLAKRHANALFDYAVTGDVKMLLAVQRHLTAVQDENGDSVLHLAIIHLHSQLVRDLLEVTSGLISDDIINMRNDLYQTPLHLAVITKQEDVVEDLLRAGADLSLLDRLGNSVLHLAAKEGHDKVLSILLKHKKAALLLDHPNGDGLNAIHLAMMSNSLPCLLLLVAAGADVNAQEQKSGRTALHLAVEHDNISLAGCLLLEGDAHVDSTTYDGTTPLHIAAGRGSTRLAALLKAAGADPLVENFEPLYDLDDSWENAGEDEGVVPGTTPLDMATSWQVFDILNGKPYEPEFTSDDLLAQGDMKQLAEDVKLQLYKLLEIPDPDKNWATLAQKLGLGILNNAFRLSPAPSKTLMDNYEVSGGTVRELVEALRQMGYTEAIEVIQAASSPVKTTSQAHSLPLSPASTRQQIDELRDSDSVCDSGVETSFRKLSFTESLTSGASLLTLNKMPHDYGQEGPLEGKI
T1 sequence (Q00653 whole entry, looked up): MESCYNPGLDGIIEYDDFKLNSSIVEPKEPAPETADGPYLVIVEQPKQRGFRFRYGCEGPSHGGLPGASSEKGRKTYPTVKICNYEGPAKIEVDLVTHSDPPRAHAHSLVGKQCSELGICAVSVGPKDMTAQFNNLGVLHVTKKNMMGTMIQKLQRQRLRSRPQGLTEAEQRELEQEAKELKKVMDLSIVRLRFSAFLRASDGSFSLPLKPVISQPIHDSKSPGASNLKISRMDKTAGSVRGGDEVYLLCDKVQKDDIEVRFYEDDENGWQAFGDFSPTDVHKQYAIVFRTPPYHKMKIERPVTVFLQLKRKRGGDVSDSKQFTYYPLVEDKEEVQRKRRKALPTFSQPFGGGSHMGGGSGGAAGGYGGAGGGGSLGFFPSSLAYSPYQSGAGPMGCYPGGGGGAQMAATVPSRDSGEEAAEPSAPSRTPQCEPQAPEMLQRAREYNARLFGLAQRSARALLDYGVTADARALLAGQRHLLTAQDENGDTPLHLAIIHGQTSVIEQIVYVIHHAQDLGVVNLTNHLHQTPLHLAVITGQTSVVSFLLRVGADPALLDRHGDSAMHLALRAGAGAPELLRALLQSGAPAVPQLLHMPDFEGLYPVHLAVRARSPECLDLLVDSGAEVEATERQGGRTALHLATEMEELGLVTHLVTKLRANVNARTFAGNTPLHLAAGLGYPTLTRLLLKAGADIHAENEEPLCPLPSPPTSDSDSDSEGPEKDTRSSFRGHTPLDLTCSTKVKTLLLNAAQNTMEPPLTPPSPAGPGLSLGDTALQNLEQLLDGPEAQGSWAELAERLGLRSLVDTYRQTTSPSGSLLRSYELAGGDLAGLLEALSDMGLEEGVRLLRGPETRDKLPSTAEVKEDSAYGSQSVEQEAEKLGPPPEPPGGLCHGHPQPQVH
T1 sequence (Q04206 whole entry, looked up): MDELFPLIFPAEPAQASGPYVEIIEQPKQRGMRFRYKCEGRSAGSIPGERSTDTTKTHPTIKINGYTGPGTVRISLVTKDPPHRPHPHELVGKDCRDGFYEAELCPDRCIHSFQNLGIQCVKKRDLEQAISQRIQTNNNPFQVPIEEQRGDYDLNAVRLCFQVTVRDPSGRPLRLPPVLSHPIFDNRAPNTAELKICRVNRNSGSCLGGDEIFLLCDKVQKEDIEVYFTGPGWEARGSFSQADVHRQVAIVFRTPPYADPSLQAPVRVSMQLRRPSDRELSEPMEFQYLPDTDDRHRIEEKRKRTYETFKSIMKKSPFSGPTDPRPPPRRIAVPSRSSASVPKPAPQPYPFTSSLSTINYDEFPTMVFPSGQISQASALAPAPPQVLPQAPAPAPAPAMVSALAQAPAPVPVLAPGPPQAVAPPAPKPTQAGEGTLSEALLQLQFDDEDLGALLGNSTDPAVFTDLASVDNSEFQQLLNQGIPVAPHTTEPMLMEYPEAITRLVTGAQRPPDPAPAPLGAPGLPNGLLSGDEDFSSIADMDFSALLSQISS
Type: cell-based

Row | Compound | fold change (FC)
6 | CCCCNC(=O)[C@@H](CCC(=O)O)NC(=O)[C@H](C)NC(=O)[C@@H](C)O[C@H]1[C@H](O)[C@@H](CO)O[C@@H](O)[C@@H]1NC(C)=O | 1.1
7 | CC(=O)N[C@@H]1[C@@H](O[C@H](C)C(=O)N[C@@H](C)C(=O)N[C@H](CCC(=O)O)C(=O)OCCc2ccccc2)[C@H](O)[C@@H](CO)O[C@H]1O | 5.6

Now from value to compound:

Row | fold change (FC) | Compound
8 | 4.7 | CCCCOC(=O)[C@@H](CCC(=O)O)NC(=O)[C@H](C)NC(=O)[C@@H](C)O[C@H]1[C@H](O)[C@@H](CO)O[C@@H](O)[C@@H]1NC(C)=O
9 | 5.3 | CCCCCCCCCCCCCCCCOC(=O)[C@@H](CCC(=O)O)NC(=O)[C@H](C)NC(=O)[C@@H](C)O[C@H]1[C@H](O)[C@@H](CO)O[C@@H](O)[C@@H]1NC(C)=O
10 | 1.1 | CCCCCCNC(=O)[C@@H](CCC(=O)O)NC(=O)[C@H](C)NC(=O)[C@@H](C)O[C@H]1[C@H](O)[C@@H](CO)O[C@@H](O)[C@@H]1NC(C)=O
11 | 6.1 | CCCCCCCCOC(=O)[C@@H](CCC(=O)O)NC(=O)[C@H](C)NC(=O)[C@@H](C)O[C@H]1[C@H](O)[C@@H](CO)O[C@@H](O)[C@@H]1NC(C)=O

These compounds were tested against T1, Nuclear factor NF-kappa-B complex (Homo sapiens) (assay: Activation of NF-KappaB (unknown origin) expressed in HEK293T cells assessed as fold change at 10 nM incubated for 12 hrs by Renilla luciferase assay). Conditions: filed as activator.
Type: cell-based

Row | Compound | fold change (FC)
12 | CCCCNC(=O)[C@@H](CCC(=O)O)NC(=O)[C@H](C)NC(=O)[C@@H](C)O[C@H]1[C@H](O)[C@@H](CO)O[C@@H](O)[C@@H]1NC(C)=O | 1.1
13 | CC(=O)N[C@@H]1[C@@H](O[C@H](C)C(=O)N[C@@H](C)C(=O)N[C@H](CCC(=O)O)C(=O)OCCc2ccccc2)[C@H](O)[C@@H](CO)O[C@H]1O | 5.6

Further lines, results first:

Row | fold change (FC) | Compound
14 | 4.7 | CCCCOC(=O)[C@@H](CCC(=O)O)NC(=O)[C@H](C)NC(=O)[C@@H](C)O[C@H]1[C@H](O)[C@@H](CO)O[C@@H](O)[C@@H]1NC(C)=O
15 | 5.3 | CCCCCCCCCCCCCCCCOC(=O)[C@@H](CCC(=O)O)NC(=O)[C@H](C)NC(=O)[C@@H](C)O[C@H]1[C@H](O)[C@@H](CO)O[C@@H](O)[C@@H]1NC(C)=O
16 | 1.1 | CCCCCCNC(=O)[C@@H](CCC(=O)O)NC(=O)[C@H](C)NC(=O)[C@@H](C)O[C@H]1[C@H](O)[C@@H](CO)O[C@@H](O)[C@@H]1NC(C)=O
17 | 6.1 | CCCCCCCCOC(=O)[C@@H](CCC(=O)O)NC(=O)[C@H](C)NC(=O)[C@@H](C)O[C@H]1[C@H](O)[C@@H](CO)O[C@@H](O)[C@@H]1NC(C)=O

Each compound was assayed against T1, Nuclear factor NF-kappa-B complex (Homo sapiens) (assay: Activation of NF-KappaB (unknown origin) expressed in HEK293T cells assessed as fold change at 100 nM incubated for 12 hrs by Renilla luciferase assay). Conditions: filed as activator.
Type: cell-based

Row | Compound | fold change (FC)
18 | CCCCNC(=O)[C@@H](CCC(=O)O)NC(=O)[C@H](C)NC(=O)[C@@H](C)O[C@H]1[C@H](O)[C@@H](CO)O[C@@H](O)[C@@H]1NC(C)=O | 1.1
19 | CC(=O)N[C@@H]1[C@@H](O[C@H](C)C(=O)N[C@@H](C)C(=O)N[C@H](CCC(=O)O)C(=O)OCCc2ccccc2)[C@H](O)[C@@H](CO)O[C@H]1O | 7

Now from value to compound:

Row | fold change (FC) | Compound
20 | 7.1 | CCCCOC(=O)[C@@H](CCC(=O)O)NC(=O)[C@H](C)NC(=O)[C@@H](C)O[C@H]1[C@H](O)[C@@H](CO)O[C@@H](O)[C@@H]1NC(C)=O
21 | 7 | CCCCCCCCCCCCCCCCOC(=O)[C@@H](CCC(=O)O)NC(=O)[C@H](C)NC(=O)[C@@H](C)O[C@H]1[C@H](O)[C@@H](CO)O[C@@H](O)[C@@H]1NC(C)=O
22 | 1.15 | CCCCCCNC(=O)[C@@H](CCC(=O)O)NC(=O)[C@H](C)NC(=O)[C@@H](C)O[C@H]1[C@H](O)[C@@H](CO)O[C@@H](O)[C@@H]1NC(C)=O
23 | 6.9 | CCCCCCCCOC(=O)[C@@H](CCC(=O)O)NC(=O)[C@H](C)NC(=O)[C@@H](C)O[C@H]1[C@H](O)[C@@H](CO)O[C@@H](O)[C@@H]1NC(C)=O

The compounds below were run against T1, Nuclear factor NF-kappa-B complex (Homo sapiens) (assay: Activation of NF-KappaB (unknown origin) expressed in HEK293T cells assessed as fold change at 1000 nM incubated for 12 hrs by Renilla luciferase assay). Conditions: filed as activator.
Type: cell-based

Row | Compound | fold change (FC)
24 | CCCCNC(=O)[C@@H](CCC(=O)O)NC(=O)[C@H](C)NC(=O)[C@@H](C)O[C@H]1[C@H](O)[C@@H](CO)O[C@@H](O)[C@@H]1NC(C)=O | 2.1
25 | CC(=O)N[C@@H]1[C@@H](O[C@H](C)C(=O)N[C@@H](C)C(=O)N[C@H](CCC(=O)O)C(=O)OCCc2ccccc2)[C@H](O)[C@@H](CO)O[C@H]1O | 6

Results, then the compound that gave them:

Row | fold change (FC) | Compound
26 | 7.8 | CCCCOC(=O)[C@@H](CCC(=O)O)NC(=O)[C@H](C)NC(=O)[C@@H](C)O[C@H]1[C@H](O)[C@@H](CO)O[C@@H](O)[C@@H]1NC(C)=O
27 | 4.9 | CCCCCCCCCCCCCCCCOC(=O)[C@@H](CCC(=O)O)NC(=O)[C@H](C)NC(=O)[C@@H](C)O[C@H]1[C@H](O)[C@@H](CO)O[C@@H](O)[C@@H]1NC(C)=O
28 | 2.8 | CCCCCCNC(=O)[C@@H](CCC(=O)O)NC(=O)[C@H](C)NC(=O)[C@@H](C)O[C@H]1[C@H](O)[C@@H](CO)O[C@@H](O)[C@@H]1NC(C)=O
29 | 6.3 | CCCCCCCCOC(=O)[C@@H](CCC(=O)O)NC(=O)[C@H](C)NC(=O)[C@@H](C)O[C@H]1[C@H](O)[C@@H](CO)O[C@@H](O)[C@@H]1NC(C)=O
